Measured values reported in patent publication US7935503B2, “Methods for producing and using polymyxins” (University of Georgia Research Foundation, Inc., priority 2007, dated 2011).

What was measured:
Type in all cases: cell-based
[1] = tested on: Staphylococcus aureus ATCC 6538; test: Minimum inhibitory concentration (NCCLS dilution method); conditions: Staphylococcus aureus ATCC 6538, Gram positive; triplicate, identical values
Protocol: (§1) Bacterial Strains and Culture Conditions. Paenibacillus amylolyticus C27, C25, C26, C28, and C30 were isolated from the hindgut extract of a Tipula abdominalis larva as described in Cook et al. (2007, Appl. Environ. Microbiol., 73:5683-5686), and grown aerobically at 28° C. on tryptic soy agar (TSA) and in tryptic soy both (TSB) or Davis minimal media broth (MM) (Atlas, 1993, Handbook of Microbiological Media, Boca Raton, Fla., CRC Press, Inc.). Escherichia coli ATCC 11303 was grown aerobically at 37° C. on Luria-Bertani agar or in broth. Enterococcus faecalis ATCC 19433, Pseudomonas aeruginosa ATCC 27853, Salmonella typhimurium ATCC 29629, Shigella fexneri ATCC 9199, Bacillus subtilis ATCC 6633, Staphylococcus aureus ATCC 6538, and Streptococcus pyogenes ATCC 19615 were grown aerobically at 37° C. on TSA.
(§2) Minimum inhibitory concentrations. Both P. amylolyticus C27 peaks with antibacterial activity from HPLC purification of 500 mL minimal media culture were combined. For analysis of polymyxin B (Sigma-Aldrich, St. Louis, Mo.), polymyxin E (Sigma-Aldrich, St. Louis, Mo.), and the P. amylolyticus C27 antibacterials, MIC determinations were performed according to the National Committee for Clinical Laboratory Standards (NCCLS) (Table 2) (NCCLS, 2003, Methods for dilution antimicrobial susceptibility tests for bacteria that grow aerobically; approved standard—sixth edition. NCCLS document M7-A6. Wayne, Pa., National Committee for Clinical Laboratory Standards).

[2] = tested on: Salmonella typhimurium ATCC 29629; test: as above; conditions: Salmonella typhimurium ATCC 29629 (first line, r15), Gram negative; triplicate, identical values
Protocol: as §1, §2

[3] = tested on: Enterococcus faecalis ATCC 19433; test: as above; conditions: Enterococcus faecalis ATCC 19433, Gram positive; triplicate, identical values
Protocol: as §1, §2

[4] = tested on: Escherichia coli ATCC 11303; test: as above; conditions: Escherichia coli ATCC 11303, Gram negative; triplicate, identical values
Protocol: as §1, §2

[5] = tested on: Streptococcus pyogenes ATCC 19615; test: as above; conditions: Streptococcus pyogenes ATCC 19615, Gram positive; triplicate, identical values
Protocol: as §1, §2

[6] = tested on: Pseudomonas aeruginosa ATCC 27853; test: as above; conditions: Pseudomonas aeruginosa ATCC 27853, Gram negative; triplicate, identical values
Protocol: as §1, §2

[7] = tested on: Salmonella typhimurium ATCC 29629; test: Minimum inhibitory concentration (NCCLS dilution method), Salmonella typhimurium [sic]; conditions: Salmonella typhimurium ATCC 29629 (second line, r16), Gram negative; triplicate, identical values
Protocol: as §1
Minimum inhibitory concentrations. Both P. amylolyticus C27 peaks with antibacterial activity from HPLC purification of 500 mL minimal media culture were combined. […]

Substance	Minimum inhibitory concentration [1] [µg/mL]	Minimum inhibitory concentration [2] [µg/mL]	Minimum inhibitory concentration [3] [µg/mL]	Minimum inhibitory concentration [4] [µg/mL]	Minimum inhibitory concentration [5] [µg/mL]	Minimum inhibitory concentration [6] [µg/mL]	Minimum inhibitory concentration [7] [µg/mL]
polymyxin E	128	1	>128	2	>128	4	2
polymyxin B	32	4	>128	2	32	4	4
